# What was measured:
# RAW264.7 cells = assay: Cytotoxicity by Cell Counting Kit-8 (CCK-8); conditions: CCK-8, tested at 25, 50 and 100 μM
# Protocol: Inhibitory Assay of NO Production
# Cytotoxicity was examined using the Cell Counting Kit-8 (CCK-8). RAW264.7 cells were taken from logarithmic growth stage and the cell density reached above 80%. And then, the cells were inoculated on 96-well cell culture plates at […], with 3 ×10^4 cells per well, cultured overnight at 37 °C with 5% CO 2. After 24h, the culture medium in the 96-well plate was discarded, the solution was changed and different concentrations (25 μM, 50 μM and 100 μM) of drugs were added. The absorbance at 450 nm was measured using a microplate reader (Thermo Fisher Scientific). Viability was defined as the ratio (expressed as a percentage) of absorbance values of treated cells to untreated cells.
# (§1) Compounds 1-23 were dissolved in dimethyl sulfoxide (DMSO) and diluted with complete medium to 6 degrees of concentration […]
# were maintained in Dulbecco’s modified Eagle’s medium (high-glucose condition) supplemented with 10% fetal calf serum, 100 U/mL penicillin, and 100 μg/mL streptomycin at 37 °C in 5% CO 2. […]
# [1] = system: nitric oxide (NO) production, LPS-stimulated RAW264.7 macrophages; assay: Inhibitory assay of NO production (Griess reagent) in LPS-stimulated RAW264.7 macrophages; type: cell-based; conditions: LPS 100 ng/mL for 24 h, 30 min pretreatment, mean ± SD (n = 3)
# Protocol: NO is a messenger molecule that is widespread in cells and can affect a variety of physiological and pathological processes. The production of NO causes tissue damage and can trigger a variety of inflammatory diseases. LPS induces the release of NO from RAW264.7 cells by detecting the release of NO widely used to investigate the anti-inflammatory effects of the compounds [2, 10, 40]. […]
# Inhibitory Assay of NO Production […]
# as §1
# were maintained in Dulbecco’s modified Eagle’s medium (high-glucose condition) supplemented with 10% fetal calf serum, 100 U/mL penicillin, and 100 μg/mL streptomycin at 37 °C in 5% CO 2. RAW 264.7 cells were pretreated with each tested compound for 30 min, and then stimulated with lipopolysaccharide (LPS) (100 ng/mL) for 24 h. Aminoguanidine hydrochloride (100 μM) was used as a positive control. The NO production was measured using the Griess reagent. Briefly, the cell culture supernatant was reacted with equal volumes of Griess reagent in a 96-well plate for 10 min, and then the absorbance at 540 nm was measured by a plate reader. All experiments were performed in triplicate. All tested compounds were prepared as stock solutions with a concentration of 10 mM in DMSO. […]
# [2] = Mus musculus, RAW264.7, RAW 264.7 cell line
"IC50 [1, 2]",Compound,Cytotoxicity (RAW264.7 cells),IC50 ([1]; RAW 264.7 cell line)
> 100 µM,"COc1ccc2nc(-c3cc4ccccc4[nH]3)[nH]c(=O)c2c1 [Compound 5, 2-(1H-indol-2-yl)-6-methoxy-4(3H)-quinazolinone]",>100 µM,
> 100 µM,"C=CCCc1nc2ccccc2c(=O)[nH]1 [Compound 7, 2-(but-3-en-1-yl)-4(3H)-quinazolinone]",>100 µM,
> 100 µM,"O=c1cc(-c2ccc(O)cc2)c2ccccc2[nH]1 [Compound 4, 4-p-hydroxyphenyl-2(1H)-quinolinone]",>100 µM,
,"Cc1nc2ccccc2c(=O)[nH]1 [Compound 17, 2-methyl-4(3H)-quinazolinone]",>100 µM,
> 100 µM,"O=c1c2ccccc2nc2n1CCC(c1c[nH]c3ccccc13)=C2 [Compound 3, Isatisindigoticanine G]",>100 µM,
,2-(1H-indol-2-yl)-4(3H)-quinolinone [Compound 8],,> 100 µM
> 100 µM,"COc1cccc2[nH]c(=O)cc(-c3cc4ccccc4[nH]3)c12 [Compound 2, Isatisindigoticanine F]",>100 µM,
> 100 µM,"O=c1c2ccccc2ncn1-c1ccccc1O [Compound 14, 3-(2-hydroxyphenyl)-4(3H)-quinazolinone]",>100 µM,
> 100 µM,"COC(=O)CCCn1c(=O)[nH]c2ccccc2c1=O [Compound 13, methyl 4-(2,4-dioxo-1,2-dihydroquinazolin-3(4H)-yl)butanoate]",>100 µM,
> 100 µM,"Cc1c(O)c2ccccc2[nH]c1=O [Compound 18, 4-hydroxy-3-methyl-2(1H)-quinolinone]",>100 µM,
> 100 µM,"Nc1cc(C(=O)O)c2ccccc2n1 [Compound 19, 2-amino-4-quinolinecarboxylic acid]",>100 µM,
,"Oc1ccnc2ccccc12 [Compound 20, 4(1H)-quinolinone]",>100 µM,
> 100 µM,"O=c1[nH]c2ccccc2c(=O)n1CCCCO [Compound 11, indiforine C]",>100 µM,
> 100 µM,"Cc1nc(O)nc2ccccc12 [Compound 16, 4-methyl-1,2-dihydro-2-oxoquinazoline]",>100 µM,
,"Cl.N=C(N)NN [AG, aminoguanidine hydrochloride, reference compound]",>100 µM,22.7 ± 0.4 µM
> 100 µM,"O=C(O)CCn1c(=O)[nH]c2ccccc2c1=O [Compound 10, 3-(2,4-dioxo-1,2-dihydroquinazolin-3(4H)-yl)propanoic acid]",>100 µM,
> 100 µM,"O=c1[nH]c(-c2ccccc2O)nc2ccccc12 [Compound 6, 2-(2-hydroxyphenyl)-4(3H)-quinazolinone]",>100 µM,
> 100 µM,"NC(=O)C(c1[nH]c2ccccc2c1OC1OC(CO)C(O)C(O)C1O)c1c[nH]c2ccccc12 (centres unmarked) [Compound 23, Isatindigoside D]",>100 µM,
> 100 µM,"O=C(O)CCCn1c(=O)[nH]c2ccccc2c1=O [Compound 12, 4-(2,4-dioxo-1,2-dihydroquinazolin-3(4H)-yl)butanoic acid]",>100 µM,
> 100 µM,"O=c1cc(-c2ccc(O)cc2)c2cc(O)ccc2[nH]1 [Compound 1, Isatisindigoticanine E]",>100 µM,
> 100 µM,"O=C(O)c1cnc2ccccc2c1O [Compound 21, 4(1H)-quinolone-3-carboxylic acid]",>100 µM,
5 ± 1.3 µM,"O=C(O)c1ccccc1-n1cnc2ccccc2c1=O [Compound 15, 3-(2-carboxyphenyl)-4(3H)-quinazolinone]",>100 µM,

# Source: PMC6891263, “Alkaloids with Nitric Oxide Inhibitory Activities from the Roots of Isatis tinctoria” (Molecules, 2019)
